Assays:
GIRK1/4 channels = biological target: T1, GIRK1/4 channels (Homo sapiens, UniProt P48544+P48549); assay: Ligand-induced GIRK channel block in oocytes expressing GIRK channels in the absence of D2R; type: cell-based; conditions: for Ligand-induced GIRK channel block: 30 μM ligand, oocytes without D2R; for Current amplitude following application of ligand in the absence of D2R expression: oocytes injected with GIRK1 and GIRK4
T1 sequence (P48549 1-501): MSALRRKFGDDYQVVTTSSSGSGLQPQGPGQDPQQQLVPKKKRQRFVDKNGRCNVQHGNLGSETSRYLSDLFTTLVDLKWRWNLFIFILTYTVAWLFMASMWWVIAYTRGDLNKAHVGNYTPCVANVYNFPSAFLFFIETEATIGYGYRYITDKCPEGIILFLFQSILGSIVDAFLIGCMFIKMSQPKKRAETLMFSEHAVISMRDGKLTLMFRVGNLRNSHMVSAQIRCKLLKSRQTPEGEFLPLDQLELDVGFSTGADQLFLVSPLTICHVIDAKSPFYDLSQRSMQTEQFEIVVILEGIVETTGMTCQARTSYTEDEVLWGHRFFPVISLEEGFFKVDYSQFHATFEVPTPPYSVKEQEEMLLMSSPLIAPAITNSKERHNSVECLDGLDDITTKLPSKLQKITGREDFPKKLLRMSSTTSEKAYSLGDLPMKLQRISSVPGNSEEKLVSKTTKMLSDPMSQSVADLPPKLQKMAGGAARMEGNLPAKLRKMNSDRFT
T1 sequence (P48544 1-419): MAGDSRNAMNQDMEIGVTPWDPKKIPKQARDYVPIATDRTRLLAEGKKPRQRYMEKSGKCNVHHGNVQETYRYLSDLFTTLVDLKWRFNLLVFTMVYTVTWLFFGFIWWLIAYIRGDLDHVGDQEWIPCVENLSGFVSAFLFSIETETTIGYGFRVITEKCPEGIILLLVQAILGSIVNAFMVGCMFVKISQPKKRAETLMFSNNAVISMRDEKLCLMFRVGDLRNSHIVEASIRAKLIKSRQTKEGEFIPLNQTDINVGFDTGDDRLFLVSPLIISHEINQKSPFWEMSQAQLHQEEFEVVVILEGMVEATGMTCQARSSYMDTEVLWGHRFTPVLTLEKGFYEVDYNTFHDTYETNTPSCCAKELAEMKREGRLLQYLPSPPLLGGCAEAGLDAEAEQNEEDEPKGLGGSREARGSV
From the text: Figure S1. Effect of competing ligands on GIRK currents in the absence of D2R expression. Current
Figure S2. Intrinsic activities of aripiprazole analogues at WT D2R. Agonist responses of SWR-1-8, SV-III- […]

D2R = biological target: T2, D2R (Homo sapiens, UniProt P14416); assay: BRET beta-arrestin2 recruitment curve-shift assay in transfected HEK293 cells; type: cell-based; conditions: 5 min preincubation with antagonist before dopamine
T2 construct: expressed in transfected cells
T2 sequence (P14416 whole entry): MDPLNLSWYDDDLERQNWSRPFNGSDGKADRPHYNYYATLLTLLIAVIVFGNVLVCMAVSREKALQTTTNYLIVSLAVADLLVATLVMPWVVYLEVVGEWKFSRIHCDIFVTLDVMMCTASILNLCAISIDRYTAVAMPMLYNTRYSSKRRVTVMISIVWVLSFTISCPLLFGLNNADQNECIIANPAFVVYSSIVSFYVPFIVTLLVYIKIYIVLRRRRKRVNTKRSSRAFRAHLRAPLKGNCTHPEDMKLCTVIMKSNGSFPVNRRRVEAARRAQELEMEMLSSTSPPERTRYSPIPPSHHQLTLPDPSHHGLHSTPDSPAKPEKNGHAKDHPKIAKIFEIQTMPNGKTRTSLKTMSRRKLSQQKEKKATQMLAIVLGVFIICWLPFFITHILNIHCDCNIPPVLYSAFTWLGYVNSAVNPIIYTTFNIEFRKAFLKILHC

D2R WT [1] = biological target: T3, D2R WT (Homo sapiens, UniProt P14416); assay: cell-based
T3 sequence (P14416 whole entry): as above

D2R WT [2] = biological target: T3, D2R WT; assay: G protein-coupled inward rectifier potassium (GIRK) channel activation assay in Xenopus oocytes coexpressing D2R, RGS4 and GIRK1/4

| Ligand-induced GIRK channel block (GIRK1/4 channels) [%] | Current amplitude following application of ligand in the absence of D2R expression (GIRK1/4 channels; 30 µM ligand) | Current amplitude following application of ligand in the absence of D2R expression (GIRK1/4 channels; 1 µM ligand) | mode of antagonism of DA-induced beta-arrestin2 recruitment (D2R) | Ki (D2R WT [1]) [nM] | Kd (D2R WT [2]) [nM] | koff (D2R WT [2]) [s⁻¹] | intrinsic activity in the GIRK activation assay (in words) (D2R WT [2]; WT D2R, normalized to 1 μM DA) | SMILES |
| --- | --- | --- | --- | --- | --- | --- | --- | --- |
| < 10 | 0.90 ± 0.01 |  |  |  |  |  |  | COc1ccccc1N1CCN(CCCCCOc2ccc3c(c2)NC(=O)CC3)CC1 [SWR-1-14] |
| < 10 |  | 1.00 ± 0.02 |  |  |  |  |  | COc1ccccc1N1CCN(CCCCOc2ccc3c(c2)NC(=O)CC3)CC1 [SV-III-130] |
| < 10 | 0.99 ± 0.06 |  | competitive antagonism | 9.77 | 50.1 | 0.017 ± 0.002 | antagonists/inverse agonists | COc1ccccc1N1CCN(CCCOc2ccc3c(c2)NC(=O)CC3)CC1 [SWR-1-8] |

Reference: paper PMC7553383 (ACS Chemical Neuroscience, 2020)
